Experimental findings from patent US9505796B2, “Phosphorylated A2A receptor agonists” (Crozet Medical GMBH, priority 2006, dated 2016) are described below.

Test [1] has as its system VCAM-1 mRNA expression in aortic ECs. Put plainly: VCAM-1 mRNA expression in cultured aortic ECs (PCR). Particulars: CD73−/− ECs, ATL-146e 10 μM for 6 hours. The class given is cell-based, mouse. As to the method:
(§1) Mouse aortal ECs were cultured as described. Six mL of type I rat tail collagen (4 mg/mL) combined with 0.1 M NaOH, 3.5 mL 3×DMEM and 5.25 mL of 1×DMEM supplemented with 30% FCS was aliquoted into a 24 well plate, allowed to gel at 37° C. for 1 hour and equilibrated overnight in complete EC medium: RPMI-1640 supplemented with 20% heat inactivated FCS, 2-mercaptoethanol (4 L/L), gentamicin (10 g/mL) and EC growth supplement (50 g/mL, BD Biosciences). Aortas from CD73^−/− or WT mice cut into circular rings were opened longitudinally and placed luminal side down onto the collagen gel. After 2 days, complete medium was added and changed every third day. After 10 days, aortic segments were removed and the collagen gel digested with 0.3% collagenase H. Then, ECs were grown in complete medium and used between passages 2-8. Some ECs were treated with ATL-146e (10 μM) for 6 hours. Mono Mac 6 cells were maintained as described.
RNA was prepared using the RNAqzeous-Micro isolation kit (Ambion) and RNeasy Mini kit (Qiagen) and reverse-transcribed into cDNA using Mo-MLV RT (Invitrogen).

Test [2] deals with surface protein expression of VCAM-1 in aortic ECs. As to the kind of experiment: VCAM-1 surface protein expression in aortic ECs (flow cytometry). The note with it: ATL-146e 10 μM for 6 hours. The class given is cell-based, mouse. As to the method: as §1, with “Mono Mac 6 cells were maintained as described.” left out
For immunofluorescence, confluent ECs on glass chamber slides were fixed in methanol, permeabilized with 0.5% triton and reacted with p65 (C-20, Santa Cruz) or isotype control and FITC-conjugated secondary Ab (Boehringer Mannheim). […] After incubation for 30 min at RT, primary Ab binding was detected using a FITCconjugated secondary Ab (Boehringer Mannheim) and analyzed in a FACSCalibur (BD Biosciences). Specific mean fluorescence intensity was determined by subtracting isotype control staining.

Test [3] concerns arrest of Mono Mac 6 cells on aortic ECs. Put plainly: Adhesion assay: monocyte arrest on ECs under laminar flow. The class given is cell-based, mouse. Particulars: ATL-146e 10 μM for 6 hours. As for the experimental part: as §1
Laminar flow assays were performed as described. ECs were perfused with Mono Mac 6 cells (0.5×10^6/mL) pre-treated with or without anti-VLA-4 (10 g/mL, Immunotech) at 1.5 dyn/cm^2. The numbers of firmly arrested and rolling cells were quantified after 4 min in multiple (>10) fields by analyzing images recorded by video microscopy, and expressed as cells/mm^2

Test [4] relates to wire-injured carotid arteries of WT and CD73−/− mice. As to the kind of experiment: Mouse model of carotid artery injury, neointima formation. The class given is in vivo. The note with it: 4 weeks after injury, continuous infusion 0.004 μg/kg per minute. The text has this: Male, 6-12 week old CD73^−/− or WT NMRI mice (n=6-8) were left untreated or fed an atherogenic diet containing 21% fat for one week before and up to 4 weeks after injury. Transluminal carotid artery injury was induced by 4 rotational passes of a 0.36-mm guide-wire. After 6 days of diet and one day before carotid injury, some mice (n=10 per group) were anesthetized and underwent implantation of a primed, 28-day osmotic pump (model 2004, Alza Corp) placed subcutaneously via transverse midscapular incision for continuous treatment with ATL (0.004 μg/kg per minute; 200 μL of 1% dimethyl sulfoxide in saline; kind gift from G. W. Sullivan and J. Linden, University of Virginia). Arteries were harvested by in situ perfusion fixation with 4% paraformaldehyde and embedded in paraffin. […]
Neointimal and medial areas were quantified in serial 5 μm sections of common carotid arteries within a standardized distance from the bifurcation (50-250 μm) stained with Movat pentachrome Areas within the external elastic lamina (EEL), internal elastic lamina (TEL) and lumen (L) were determined by computer-assisted planimetry (Diskus software, Hilgers). […] The relative content of macrophages in the neointima was determined in serial sections of the LCA within 300 μm from the bifurcation (6 per mouse, each 50 μm apart). […] Images were recorded using a Leica DMLB microscope and CCD camera. […]

Regarding `CCNC(=O)[C@H]1O[C@@H](n2cnc3c(N)nc(C#CCC4CCC(C(=O)OC)CC4)nc32)[C@H](O)[C@@H]1O` (stereo partly shown) [ATL-146e], the “VCAM-1 mRNA expression” value in test [1] is given as “reduced the elevated VCAM-1 mRNA expression”. Also, the “surface protein expression of VCAM-1” value in test [2] (CD73−/− ECs) was “reversed the increased surface protein expression of VCAM-1”; in test [2] (WT ECs), “slightly diminished its expression”. In addition, the monocyte arrest entry was “inhibition of the monocyte arrest” in test [3] (CD73−/− ECs) and “not affected” in test [3] (WT ECs). In test [4] (CD73−/− mice, vs control CD73−/− mice), the “neointimal hyperplasia in carotid arteries” value is reported as “completely prevented neointimal hyperplasia”. Moreover, the “neointima formation in carotid arteries” value in test [4] (WT mice, vs control WT mice) was “significantly inhibited neointima formation”.
